# Data: patent EP0326331B1, “Substituted quinolines and cinnolines” (Dow AgroSciences LLC, priority 1988, dated 1989)
# Assays:
# Assay type in all cases: in vivo
# [1] = tested on: Erysiphe graminis tritici (powdery mildew); assay: Test 1 greenhouse foliar spray screen, powdery mildew on wheat; settings: Blumeria graminis, foliar, Test 1, foliar spray on wheat; disease control rating at 400 ppm / 100 ppm; read-out: POWD MDEW
# [2] = tested on: Pyricularia oryzae (rice blast); assay: whole plant or invertebrate; settings: Pyricularia oryzae, foliar, read-out: RICE BLAST, Test 1, foliar spray on rice; disease control rating at 400 ppm / 100 ppm
# [3] = tested on: Puccinia recondita tritici (leaf rust); assay: Test 1 greenhouse foliar spray screen, leaf rust on wheat; settings: Puccinia recondita, foliar, Test 1, foliar spray on wheat; disease control rating at 400 ppm / 100 ppm
# [4] = tested on: Botrytis cinerea (gray mold); assay: Test 1 greenhouse foliar spray screen, gray mold on grape berries; settings: Botrytis cinerea, foliar; Test 1, spray on grape berries; disease control rating at 400 ppm / 100 ppm
# [5] = tested on: Pseudoperonospora cubensis (downy mildew); assay: Test 1 greenhouse foliar spray screen, downy mildew on squash
# [6] = tested on: Cercospora beticola (leaf spot); assay: Test 1 greenhouse foliar spray screen, leaf spot on sugar beet; settings: Cercospora beticola; Test 1, foliar spray on sugar beet; disease control rating at 400 ppm / 100 ppm
# [7] = tested on: Venturia inaequalis (apple scab); assay: Test 1 greenhouse foliar spray screen, apple scab on apple seedling; settings: Venturia inaequalis; Test 1, foliar spray on apple seedling; disease control rating at 400 ppm / 100 ppm; read-out: APPL SCAB
# [8] = tested on: Septoria tritici (leaf blotch); assay: Test 1 greenhouse foliar spray screen, leaf blotch on wheat; settings: Zymoseptoria tritici; Test 1, foliar spray on wheat; disease control rating at 400 ppm / 100 ppm; read-out: LEAF BLOT
# Erysiphe sp. = assay: Field tests against plant pathogens; settings: field test, crop sugar beet
# Source text: Selected compounds were field tested against a variety of plant pathogens. […]
# [9] = tested on: southern armyworm (Spodopetra eridania Cramer); assay: Mite/insect screen, SAW; settings: Spodoptera eridania, foliar, percent mortality, foliar spray on squash, read-out: SAW RESULTS %
# Summary of the method: (§1)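 Read-out: percent mortality after standard exposure periods. Test solutions were water dilutions of compound dissolved in acetone/alcohol (50:50) with emulsifier blends; leaves were sprayed to runoff on both surfaces and air-dried for one hour before exposure.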
# [10] = tested on: Twospotted spider mites (Tetranychus urticae Koch); assay: Mite/insect screen, SM
# Summary of the method: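 Foliar spray to runoff (10 psi), 1 h drying; aqueous dilutions from acetone/alcohol emulsifier stock. Mortality (%) after standard exposure.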
# [11] = tested on: melon aphids (Aphis gossypii Glover); assay: Mite/insect screen, MA; settings: Aphis gossypii, foliar, percent mortality, foliar spray on squash, read-out: MA RESULTS %
# Summary of the method: as §1
# corn rootworm = assay: Mite/insect screen, CRW; settings: percent mortality, read-out: CRW RESULTS %
# Summary of the method: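 Read-out: % mortality after standard exposure. Formulation: acetone/alcohol (50:50) with emulsifiers at 23 g and 13 g per liter, water-diluted to final test levels.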
# Dawson-hop aphid = assay: Field trials against pest species; settings: field trial, host hops
# Experimental: (§2) 4-[2-[4-(t-Butyl)phenyl]ethoxy]-8-fluoroquinoline (Example 221) was evaluated in a number of field trials. […]
# European red mite = assay: Field trials against pest species; settings: field trial, host apples
# Experimental: as §2
# apple aphid = assay: Field trials against pest species; settings: field trial, host apples
# Experimental: as §2
# apple rust mite = assay: Field trials against pest species; settings: field trial, host apples
# Experimental: as §2
# bean aphid = assay: Field trials against pest species; settings: field trial, host bean, faba broad
# Experimental: as §2
# cotton aphid = assay: Field trials against pest species; settings: field trial, host cotton
# Experimental: as §2
# grape leafhopper = assay: Field trials against pest species; settings: field trial, host grape (European)
# Experimental: as §2
# grape thrip = assay: Field trials against pest species; settings: field trial, host grape (European)
# Experimental: as §2
# green cloverworm = assay: Field trials against pest species; settings: field trial, host alfalfa (Lucerne)
# Experimental: as §2
# green peach aphid = assay: Field trials against pest species; settings: field trial
# Experimental: as §2
# greenhouse thrip = assay: Field trials against pest species; settings: field trial, host azaleas
# Experimental: as §2
# mites = assay: Field trials against pest species; settings: field trial, host apples
# Experimental: as §2
# pea aphid = assay: Field trials against pest species; settings: field trial
# Experimental: as §2
# potato leaf hopper = assay: Field trials against pest species; settings: field trial, host alfalfa (Lucerne)
# Experimental: as §2
# rosy apple aphid = assay: Field trials against pest species; settings: field trial, host apples
# Experimental: as §2
# tarnished plant bug = assay: Field trials against pest species; settings: field trial, host alfalfa (Lucerne)
# Experimental: as §2
# thrip = assay: Field trials against pest species; settings: field trial, host privet
# Experimental: as §2
# twospotted spider mite = assay: Field trials against pest species; settings: field trial, host broccoli
# Experimental: as §2
# wheat aphid = assay: Field trials against pest species; settings: field trial, host wheat
# Experimental: as §2
# white apple leafhopper = assay: Field trials against pest species; settings: field trial, host apples
# Experimental: as §2
# yellow hickory aphid = assay: Field trials against pest species; settings: field trial, host pecan nut
# Experimental: as §2
# [12] = summary statement in the description
smiles,measurement,setting,value
"CC(C)(C)c1ccc(CCOc2ccnc3c(F)cccc23)cc1 [Example 221, 4-[2-[4-(t-butyl)phenyl]ethoxy]-8-fluoroquinoline]",pest or weed control at 400 ppm,[1],20 to 89%
same,pest or weed control at 400 ppm,[2],0 to 19%
same,pest or weed control at 400 ppm,[3],90 to 100%
same,pest or weed control at 400 ppm,[4],0 to 19%
same,pest or weed control at 400 ppm,"[5]; Pseudoperonospora cubensis, foliar, Test 1, foliar spray on squash, disease control rating at 400 ppm / 100 ppm, read-out: DOWN MDEW",90 to 100%
same,activity against downy mildew,[5]; [12],particularly excellent activity
same,pest or weed control at 400 ppm,[6],90 to 100%
same,pest or weed control at 400 ppm,[7],20 to 89%
same,pest or weed control at 400 ppm,[8],90 to 100%
same,pathogens against which compounds of the invention showed activity,Erysiphe sp.,Erysiphe sp.
same,mortality at 200 ppm,[9]; rate 200 ppm,0%
same,mortality at 400 ppm,[9]; rate 400 ppm,0%
same,mortality at 200 ppm,"[10]; Tetranychus urticae, foliar, percent mortality, rate 200 ppm, foliar spray on squash, read-out: SM RESULTS %",90%
same,mortality at 400 ppm,"[10]; Tetranychus urticae, foliar, percent mortality, rate 400 ppm, foliar spray on squash, read-out: SM RESULTS %",90%
same,activity as miticides,[10]; [12],particularly excellent activity
same,mortality at 200 ppm,[11]; rate 200 ppm,90%
same,mortality at 400 ppm,[11]; rate 400 ppm,80%
same,mortality at 12 ppm,corn rootworm; CRW rate 12.00 ppm,40%
same,mortality at 24 ppm,corn rootworm; CRW rate 24.00 ppm,0%
same,pest species against which it showed activity,Dawson-hop aphid,Dawson-hop aphid
same,pest species against which it showed activity,European red mite,European red mite
same,pest species against which it showed activity,apple aphid,apple aphid
same,pest species against which it showed activity,apple rust mite,apple rust mite
same,pest species against which it showed activity,bean aphid,bean aphid
same,pest species against which it showed activity,cotton aphid,cotton aphid
same,pest species against which it showed activity,grape leafhopper,grape leafhopper
same,pest species against which it showed activity,grape thrip,grape thrip
same,pest species against which it showed activity,green cloverworm,green cloverworm
same,pest species against which it showed activity,green peach aphid; host apples,green peach aphid
same,pest species against which it showed activity,green peach aphid; host sugar beet,green peach aphid
same,pest species against which it showed activity,greenhouse thrip,greenhouse thrip
same,pest species against which it showed activity,mites,mites
same,pest species against which it showed activity,pea aphid; host alfalfa (Lucerne),pea aphid
same,pest species against which it showed activity,"pea aphid; host pea, garden (English)",pea aphid
same,pest species against which it showed activity,potato leaf hopper,potato leaf hopper
same,pest species against which it showed activity,rosy apple aphid,rosy apple aphid
same,pest species against which it showed activity,tarnished plant bug,tarnished plant bug
same,pest species against which it showed activity,thrip,thrip
same,pest species against which it showed activity,twospotted spider mite,twospotted spider mite
same,pest species against which it showed activity,wheat aphid,wheat aphid
same,pest species against which it showed activity,white apple leafhopper,white apple leafhopper
same,pest species against which it showed activity,yellow hickory aphid,yellow hickory aphid
